Like-named read-outs stand apart in the source and are kept apart here.
Experiments:
[1] = system: Weibliche CFY-Ratten; assay: Mortality after subcutaneous administration in rats; type: in vivo; settings: subcutan, 150 mg/kg, observation one week
From the text: • a) Die Resorption von Nystatin aus per os verabreichtem Nystatin-γ-CD-Komplex Die Resorption des Wirkstoffes wurde an Mäusen, an einem durch intravenöse Applikation einer Suspension von Candida albicans hervorgerufenen Sepsismodell untersucht. Die Sepsis verursachte innerhalb von 2-3 Tagen 100 %ige Mortalität. Den Versuchstieren wurde per os gemäß Beispiel 3 hergestellte, 8 % Nystatin enthaltende Komplex verabreicht. In einem Parallelversuch wurde Nystatin intravenös appliziert. Für beide Gruppen wurde die auf die unbehandelte Kontrolle bezogene Verlängerung der Überlebensdauer ermittelt. [formula] Wenn man diejenigen in Form des Komplexes per os verabreichten Nystatindosen mit denjenigen i.v. applizierten Nystatindosen vergleicht, die eine etwa gleiche Verlängerung der Überlebensdauer bewirkten (Tabelle 9, letzte Spalte),so läßt sich errechnen, daß aus dem Komplex durchschnittlich 6,2 % des Wirkstoffes in die Blutbahn gelangten. Bei den höchsten Dosen (i.v. 1,56 mg/kg, p.o. 25 mg/kg) ist das Zurückfallen der Überlebensdauer bereits auf die schwache Toxizität des Nystatins zurückzuführen. • b) Die Resorption von Nystatin aus subcutan appliziertem Nystatin-γ-CD-Komplex Weibliche CFY-Ratten eines durchschnittlichen Gewichtes von 180 g wurden mit Nystatin, mit Nystatin-γ-CD-Komplex (Wirkstoffgehalt9 8 %) beziehungsweise mit γ-CD behandelt. […]

[2] = Solubility of Nystatin in aqueous γ-CD solutions (spectrophotometric); type: physicochemical; settings: for Nystatinkonzentration: 37 °C, 10 min schütteln
Experimental: Ähnlich wie im Falle des Flavofungins wurde auch für Nystatin die Löslichkeit in γ-CD-Lösungen unterschiedlicher Konzentration ermittelt. Die verwendeten wäßrigen γ-CD-Lösungen hatten Konzentrationen von 0, 1, 2,5, 4, 5, 6, 7, 8, 9, 10 und 15 %. Pro ml wurden 20 mg Nystatin zu gesetzt. Die Lösungen wurden bei 37 °C 10 Minuten lang geschüttelt, dann wurde ihr Nystatingehalt spektrophotometrisch bestimmt. Ähnlich wie bei Flavofungin wurde gefunden, daß die Löslichkeit des Nystatins in wäßrigen γ-CD-Lösungen ansteigt und in 5 %iger γ-CD-Lösung etwa das 25fache, in 10 %iger γ-CD-Lösung etwa das 40fache der ursprünglichen Wasserlöslichkeit beträgt. Die Meßergebnisse sind in der Tabelle 2 zusammengestellt.
Die aus dem anfänglich linearen Abschnitt der bei 37 °C aufgenommen Löslichkeitsisotherme berechnete scheinbare Stabilitätskonstante des Komplexes beträgt etwa 500.

[3] = cited from earlier work
[4] = Dissolution of Nystatin complex and Nystatin base material in water at 37 °C; type: physicochemical; settings: destilliertes Wasser, after the first 5 Minuten
Experimental: Der auf die beschriebene Weise hergestellte Komplex zeigte bei den thermoanalytischen Untersuchungen im Vergleich zum Gemisch die gleichen Abweichungen wie der gemäß Beispiel 3 durch Lyophilisieren hergestellte Komplex. Die Löslichkeit von einer der Wirkstoffmenge von 10 mg/ml entsprechenden Menge Nystatin-γ-CD-Komplex und von Nystatingrundmaterial wurde in 15 ml destilliertem Wasser bei 37 °C untersucht. Die Lösungen wurden mit dem Magnetrührer bei einer Drehzahl von 150 min⁻¹ gerührt. Zu unterschiedlichen Zeitpunkten wurden Proben genommen, filtriert und spektrophotometrisch auf ihren Wirkstoffgehalt untersucht. Die Ergebnisse sind in der Tabelle 6 zusammengestellt.
Das Spektrum der von der wäßrigen Suspension des Nystatingrundmaterials genommenen Proben war nicht auswertbar. […] Zuerst deformierte sich das Maximum um 290 nm und verschwand dann ganz, und im Bereich geringerer Wellenlänge zeigten sich neue Maxima, was auf Schädigung des konjugierten Chromophorsystems schließen läßt.

[5] = system: aus menschlichem Blut hergestellten Suspensionen roter Blutkörperchen; settings: literature value; cited from earlier work

## C[C@@H]1[C@H](O)[C@@H](C)/C=C/C=C/CC/C=C/C=C/C=C/C=C/C(O[C@H]2O[C@H](C)[C@@H](O)[C@H](N)[C@@H]2O)CC2O[C@](O)(CC(O)C(O)CCC(O)CC(O)CC(O)CC(=O)O[C@H]1C)CC(O)C2C(=O)O (stereo partly shown) [Nystatin]
[1]
  Mortalität (animals that died): kein einziges
[2]; 5 %ige γ-CD-Lösung
  Löslichkeit relative to ursprüngliche Wasserlöslichkeit: ~25 fache
[2]; 10 %ige γ-CD-Lösung
  Löslichkeit relative to ursprüngliche Wasserlöslichkeit: ~40 fache
[2]; γ-CD-Konzentration 0 %
  Nystatinkonzentration: 0,20 mg/ml
[2]; γ-CD-Konzentration 1 %
  Nystatinkonzentration: 1,30 mg/ml
[2]; γ-CD-Konzentration 2,5 %
  Nystatinkonzentration: 2,36 mg/ml
[2]; γ-CD-Konzentration 4 %
  Nystatinkonzentration: 3,95 mg/ml
[2]; γ-CD-Konzentration 5 %
  Nystatinkonzentration: 4,70 mg/ml
[2]; γ-CD-Konzentration 6 %
  Nystatinkonzentration: 5,50 mg/ml
[2]; γ-CD-Konzentration 7 %
  Nystatinkonzentration: 6,30 mg/ml
[2]; γ-CD-Konzentration 8 %
  Nystatinkonzentration: 7,20 mg/ml
[2]; γ-CD-Konzentration 9 %
  Nystatinkonzentration: 8,10 mg/ml
[2]; γ-CD-Konzentration 10 %
  Nystatinkonzentration: 8,95 mg/ml
[2]; γ-CD-Konzentration 15 %
  Nystatinkonzentration: 8,20 mg/ml
[3]; 70 %iges wäßriges Isopropanol
  Löslichkeit: 2,2 mg/ml
[3]; 75 %-iges wäßriges Äthanol
  Löslichkeit: 4 mg/mL
[3]; Methanol
  maximale Löslichkeit: 9,2-11,2 mg/ml
[3]; reines Isopropanol
  Löslichkeit: 0,62 mg/ml
[3]; reines Äthanol
  Löslichkeit: 0,55 mg/ml
[3]; zusammen mit Polyvinylpyrrolidon ausgefällt (coprecipitate)
  Löslichkeit, increase: 8-10 mal
[4]
  Zersetzung in aqueous suspension (UV spectrum): fortschreitende Zersetzung
[5]
  EH₅₀ (concentration for 50 % haemolysis): 50 µg/mL
